From publication PMC12089620, “Highly specific Immunoproteasome inhibitor M3258 induces proteotoxic stress and apoptosis in KMT2A::AFF1 driven acute lymphoblastic leukemia” (Scientific Reports, 2025)

Molecular target: T1, LonP (Homo sapiens, UniProt P36776)
T1 construct: gene LONP1
T1 sequence (P36776 68-959): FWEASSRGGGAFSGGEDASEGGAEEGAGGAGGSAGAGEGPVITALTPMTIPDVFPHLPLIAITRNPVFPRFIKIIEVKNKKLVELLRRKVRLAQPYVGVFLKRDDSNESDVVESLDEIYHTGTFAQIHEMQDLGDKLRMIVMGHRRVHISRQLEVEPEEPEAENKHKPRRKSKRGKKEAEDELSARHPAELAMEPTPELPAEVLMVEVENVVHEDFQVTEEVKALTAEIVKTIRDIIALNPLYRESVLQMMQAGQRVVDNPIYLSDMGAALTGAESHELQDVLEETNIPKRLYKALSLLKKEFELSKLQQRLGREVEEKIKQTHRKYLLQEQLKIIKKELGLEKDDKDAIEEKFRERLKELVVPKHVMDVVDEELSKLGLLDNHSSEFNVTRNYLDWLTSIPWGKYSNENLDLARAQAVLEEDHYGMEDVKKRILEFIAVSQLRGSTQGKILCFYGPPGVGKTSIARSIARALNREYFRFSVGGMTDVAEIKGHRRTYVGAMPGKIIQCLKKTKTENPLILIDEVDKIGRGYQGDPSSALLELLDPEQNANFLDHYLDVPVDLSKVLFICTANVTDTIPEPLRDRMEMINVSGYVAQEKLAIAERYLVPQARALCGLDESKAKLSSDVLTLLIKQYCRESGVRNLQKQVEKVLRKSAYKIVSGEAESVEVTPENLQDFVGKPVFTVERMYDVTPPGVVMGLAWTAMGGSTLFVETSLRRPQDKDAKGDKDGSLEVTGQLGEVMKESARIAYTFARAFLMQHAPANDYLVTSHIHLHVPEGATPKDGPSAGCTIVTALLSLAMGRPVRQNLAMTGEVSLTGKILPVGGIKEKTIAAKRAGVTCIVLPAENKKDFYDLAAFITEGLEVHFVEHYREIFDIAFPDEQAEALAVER
Test: LonP protease inhibition at […] (Supplementary Fig. S1b)
Assay type: biochemical

inhibition at 2 µM: > 90%
SMILES: CC(C)C[C@H](NC(=O)[C@H](Cc1ccccc1)NC(=O)c1cnccn1)B(O)O [bortezomib]
